From patent US4442093A, “Method for administering 24,25-dihydroxycholecalciferol to persons suffering from hypercalcemia” (Kureha Kagaku Kogyo Kabushiki Kaisha, priority 1981, dated 1984)

Tests used:
blood sugar = assay: Blood sugar in streptozotocin rats (Example 22); assay type: in vivo, male Wistar rats; details: 10 µg/kg/day p.o., 4 weeks, streptozotocin i.p.
Description: Among the male Wistar rats in 6th week after birth to which 60 mg of streptozotocin/kg body weight was intraperitoneally administered, those in which positive urine sugar was confirmed after one week of the administration, reduction of both urine sugar and blood sugar was shown by the administration of regular insulin and a state of hyper urine sugar and hyper blood sugar was confirmed after a few days of the administration of regular insulin. The confirmed rats were used as the model animals of glycosuria in the following tests. As control, the male Wistar rats intraperitoneally administered with aqueous physiological saline solution instead of streptozotocin were used. These rats were fed with an ordinary solid diet (CE-2, prepared by Nippon Crea Co., Ltd.)
The model animals were divided into two groups each consisting of 12 animals, and to the rats of the first group (according to the present invention), 24R,25-(OH)2 -D3 was forcibly administered p.o. in a state of solution in MCT (triglyceride of C8 and C10 -fatty acid) containing 0.2% by weight of ethanol once a day, 5 to 6 times a week for continuous 4 weeks at a daily dose rate of 10 micrograms/kg body weight. To the rats of the second group, only the same amount of MCT containing 0.2% by weight of ethanol as above was forcibly p.o. administered in the same manner as in the first group. […]

thymus = assay: Weight ratio of thymus to body and number of thymocytes in rats given puromycin aminonucleoside (Example 11); assay type: in vivo, male JCL-Wistar rats; details: 100 µg/kg/day oral 12 days with puromycin aminonucleoside 15 mg/kg s.c.
Description: Thirty-two male JCL-Wistar rats in tenth week after birth were used in the present test while keeping them in a room at 21±1° C. and 60±5% RH with solid diet (CE 2) and water taken ad lib.
They were divided equally into 4 groups (one group consisting of 8 animals), their treatments in the test being as follows:
subcutaneous injection of puromycin aminonucleoside as in the second group and oral administration of 24R,25-(OH)2 -D3 dissolved in Panacete 810 once a day at a daily dose rate of 100 micrograms/kg for continuous 12 days.
subcutaneous injection of puromycin aminonucleoside as in the second group and oral administration of 24S,25-(OH)2 -D3 dissolved in Panacete 810 once a day at a daily dose rate of 100 micrograms/kg for continuous 12 days.
After uniformly loosing the thymus in phosphate buffer solution with a forcets and fully pipetting, the mixture was filtered through a stainless steel mesh (Tylar standard #200) and the filtrate containing the thymic cells was stained with Turk's solution. The thus stained specimen was subjected to counting under a microscope.

[1] = tested on: lymphocytes from a healthy person; assay: Effect of plasma of treated renal failure/uremia patients on blastoid-transformation of lymphocytes from a healthy person (Example 14); assay type: cell-based, human; details: 0.5 to 1.0 µg/day oral, 1 to 6 months
Description: Effects of plasma derived from a patient suffering from chronic renal failure or uremia treated with the present compound or not treated therewith on blastoid-transformation of lymphocytes from a healthy person Heparinized fresh peripheral blood of a normal person was mixed with Ficoll-Paque solution, and after subjecting the mixture to ultracentrifugal separation, the layer of lymphocyte was collected, and after washing the layer three times with phosphate buffer solution, the washed lymphocytes were dispersed in suspension in RPMI-1640 culture medium (liquid) at a concentration of 6×10^5 cells/ml. […] Then, the specimen was harvested to determine the uptake of ^3 H-TdR by the lymphocytes. In addition, the plasma of each patient was collected two times, namely, once before hemodialysis and once after hemodialysis, and accordingly the total patient system of the present test consists of two large groups one of which is administered and the other of which is not administered with the compound, and each large group consists of two groups one of which is not yet hemodialysed and the other of which has been already hemodialysed.

blood sugar level = assay: Blood sugar in patients (Example 23); assay type: in vivo, human
Description: Three patients shown in Table 17 were treated by oral administration of a daily dose of 4 to 6 micrograms of 24R,25-(OH)2 -D3 in a form of the soft capsule composition obtained in Example 6 for 3 continuous weeks. After the completion of administration, the patient was fasted for a night and their blood specimen was collected at 11:00 a.m. in the next morning.
Effectiveness of reducing blood sugar level (ERBS) is calculated from the […]

calcium level in serum = assay: Serum calcium in rats transplanted with Walker-carcinosarcoma 256 (Example 5); assay type: in vivo, Sprague-Dawley rat
Description: After injecting 0.5 ml of ascites of Walker-carcinosarcoma 256 adjusted to contain 2×10^6 tumour cells per microliter into the upper part of the right thigh of a Sprague-Dawley rat of body weight of 90-140 g, a solution of 24R,25-(OH)2 -D3 in the triglyceride ester used in Example 1 at a concentration of 0.5 microgram/100 microliter was orally administered once a day for continuous 7 days at a daily dose rate of 20 micrograms of 24R,25-(OH)2 -D3 per kg body weight of the rat. […] The blood specimen was also collected in the same manner from a rat of the same strain injected with the ascites in the same manner as in the first rat, however, only administered with the triglyceride ester. The two levels of calcium in the respective sera of the two groups were compared in Table 5.

[2] = tested on: inorganic phosphate in serum; assay: Serum inorganic phosphate in 5/6-nephrectomized rats (Example 18); assay type: in vivo, male Wistar rats; details: hyperphosphatemia due to 5/6-nephrectomy
Description: Ten milligrams of 24R,25-(OH)2 -D3 was dissolved in 10 ml of isopropyl alcohol and one ml of the thus obtained solution was admixed into 1,000 ml of distilled water under agitation. The thus obtained solution has the concentration of isopropyl alcohol of 0.1% by weight and the concentration of 24R,25-(OH)2 -D3 of 1 microgram/ml and was called as the composition for oral administration A (abbreviated and referred to as Composition A hereinafter). In a similar manner as the above, another composition for oral administration of the concentration of 24R,25-(OH)2 -D3 of 0.1 microgram/ml and the concentration of isopropyl alcohol of 0.1% by weight was prepared, and referred to hereinafter as Composition B.
Thirty male Wistar rats of average body weight of 200±30 g were subjected to operation of 5/6--nephrectomy.
Ten male Wistar rats of the same average body weight were subjected to sham operation. After one month of the operation, the above-mentioned Composition A or Composition B was given to each group (one group consisting of 10 animals) of the rats 6 times a week for 9 weeks to be taken ad lib. The amount of 24R,25-(OH)2 -D3 taken by each rat for a week was calculated from the total amount of water taken by the rats of the group, the total amount of water taken by the rats being actually measured week after week.

[3] = average of 3 patients, 4 to 6 µg/day oral, 3 weeks
[4] = person fourteen, 4 µg/day oral, 3 weeks
[5] = person nineteen, 6 µg/day oral, 3 weeks
[6] = person seven, 6 µg/day oral, 3 weeks

Question: For C=C1CC[C@H](O)C/C1=C/C=C1\CCC[C@]2(C)[C@@H]([C@H](C)CC[C@@H](O)C(C)(C)O)CC[C@@H]12 [24R,25-(OH)2 -D3], which Blood sugar (blood sugar) is on record?
Answer: 208 ± 42 mg/dL

Question: What about the Number of thymocytes (thymus) of the same molecule?
Answer: (32 ± 5.5) × 10^7

Question: What about the “Weight ratio: thymus/body” value (thymus) of the same molecule?
Answer: 0.00101 ± 0.00011

Question: And the “Uptake of 3H-TdR in the presence of lectin from kidney beans” value ([1]; after hemodialysis)?
Answer: 222480 ± 21253 cpm

Question: And the “Uptake of 3H-TdR in the presence of lipopolysaccharide” value ([1]; after hemodialysis)?
Answer: 129984 ± 51385 cpm

Question: And the “Uptake of 3H-TdR in the presence of lectin from kidney beans” value ([1]; before hemodialysis)?
Answer: 228906 ± 19081 cpm

Question: And the “Uptake of 3H-TdR in the presence of lipopolysaccharide” value ([1]; before hemodialysis)?
Answer: 158950 ± 48245 cpm

Question: And the “Blood sugar level after administration, average” value (blood sugar level; [3])?
Answer: 129.7 ± 9.1 mg/dL

Question: And the “Effectiveness in reducing blood sugar level, average” value (blood sugar level; [3])?
Answer: 86.2%

Question: And the “Blood sugar level before administration, average” value (blood sugar level; average of 3 patients, baseline)?
Answer: 182 ± 13.5 mg/dL

Question: And the “Blood sugar level after administration” value (blood sugar level; [4])?
Answer: 120 mg/dL

Question: What about the “Effectiveness in reducing blood sugar level” value (blood sugar level; [4]) of the same molecule?
Answer: 100%

Question: And the “Blood sugar level before administration” value (blood sugar level; person fourteen, baseline)?
Answer: 168 mg/dL

Question: What about the “Blood sugar level after administration” value (blood sugar level; [5]) of the same molecule?
Answer: 138 mg/dL

Question: And the “Effectiveness in reducing blood sugar level” value (blood sugar level; [5])?
Answer: 76%

Question: And the “Blood sugar level before administration” value (blood sugar level; person nineteen, baseline)?
Answer: 195 mg/dL

Question: What about the “Blood sugar level after administration” value (blood sugar level; [6]) of the same molecule?
Answer: 131 mg/dL

Question: What about the “Effectiveness in reducing blood sugar level” value (blood sugar level; [6]) of the same molecule?
Answer: 82.5%

Question: And the “Blood sugar level before administration” value (blood sugar level; person seven, baseline)?
Answer: 183 mg/dL

Question: And the “Calcium level in serum after one week of transplantation” value (calcium level in serum; 20 µg/kg/day oral, 7 days)?
Answer: 11.2 ± 0.6 mg/dL

Question: What about the “Calcium level in serum before transplantation” value (calcium level in serum; before transplantation (baseline)) of the same molecule?
Answer: 10.5 ± 0.3 mg/dL

Question: What about the “inorganic phosphate level in serum” value [2] of the same molecule?
Answer: significant reduction of the inorganic phosphate level
